Experimental data reported in US20220073521A1, “PYRIMIDINE AND FIVE-MEMBERED NITROGEN HETEROCYCLE DERIVATIVE, PREPARATION METHOD THEREFOR, AND MEDICAL USES THEREOF” (Tuojie Biotech (Shanghai) Co., Ltd., priority 2018, published 2022).
Read-outs that look alike come from different tables or passages of the source.

Experiments:
[1] = system: p-ERK in KYSE-520 cells; test: Determination of p-ERK in KYSE-520 cells (HTRF); assay type: cell-based
Procedure: KYSE-520 cells (Nanjing Cobioer Biosciences CO., Ltd.) in the logarithmic growth phase were inoculated (30,000 cells/well) in 1640 medium containing 10% of FBS, and adhered in a 96-well plate overnight (5% CO2, 37° C.). […] The cell culture was stopped with cell lysate. The level of phosphorylated ERK in KYSE-520 cells was determined by a method based on homogeneous time-resolved fluorescence HTRF (Cisbio, 64ERKPEG). The fluorescence values (Ex337 nm/Em625/665 nm) were read on the compatible HTRF reader (MD SpectraMax).

[2] = system: KYSE-520 cells; test: KYSE-520 cell proliferation experiment (CellTiter-Glo, 7 days); assay type: cell-based
Procedure: The treated cell plate was incubated at 37° C., 5% CO2 for 7 days. CellTiter-Glo (Promega, G7573) was used to determine the number of viable cells in each well of the treated plate. 100 μL of the detection reagent was added to each well, and the plate was incubated at room temperature for 10 minutes. Then, the […] in each well was measured with Envision plate reader (PerkinElmer). […] The IC50 value was further calculated as the compound concentration required for 50% proliferation inhibition in the best-fit curve with […].

[3] = target: T1, SHP2 wild-type phosphatase (recombinantly expressed full-length SHP2, aa 1-593) (Homo sapiens, UniProt Q06124); test: In vitro activity on SHP2 wild-type phosphatase (DiFMUP fluorescence); conditions: wild-type full-length SHP2, activated polypeptide IRS1 0.5 nM, DiFMUP 30 μM;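 note: enzyme preincubated at room temperature, then DiFMUP reaction run at room temperature and halted with SDS, potency derived from a logistic curve fit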
T1 sequence (Q06124 1-593): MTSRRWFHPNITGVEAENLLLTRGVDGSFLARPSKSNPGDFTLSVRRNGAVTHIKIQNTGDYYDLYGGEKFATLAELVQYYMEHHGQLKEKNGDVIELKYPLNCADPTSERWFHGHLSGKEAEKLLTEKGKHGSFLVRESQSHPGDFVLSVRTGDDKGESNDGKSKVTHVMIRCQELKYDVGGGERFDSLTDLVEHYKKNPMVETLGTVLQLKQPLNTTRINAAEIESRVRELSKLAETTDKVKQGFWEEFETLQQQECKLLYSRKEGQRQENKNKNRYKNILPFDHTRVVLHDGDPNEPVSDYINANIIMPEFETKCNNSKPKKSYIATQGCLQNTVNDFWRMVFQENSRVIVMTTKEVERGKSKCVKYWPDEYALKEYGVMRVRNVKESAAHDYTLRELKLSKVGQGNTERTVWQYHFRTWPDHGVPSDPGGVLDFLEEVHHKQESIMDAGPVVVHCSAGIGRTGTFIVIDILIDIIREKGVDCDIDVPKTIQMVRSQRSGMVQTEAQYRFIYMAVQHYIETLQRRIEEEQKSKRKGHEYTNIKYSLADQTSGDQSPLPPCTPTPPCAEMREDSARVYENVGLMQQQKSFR
Procedure: 0.2 nM recombinantly expressed full-length SHP2 (aa 1-593), 0.5 nM activated polypeptide IRS1 with double phosphorylation sites (sequence: H2N-LN(pY)IDLDLY(dPEG8)LST(pY)ASINFQK-amide) and a series of concentrations of the test compound (final concentrations were 1 μM, 0.3 μM, 0.1 μM, 0.03 μM, 0.01 μM, 0.003 μM, 0.001 μM, 0.0003 μM, 0.0001 μM, 0.00003 μM) were added to the phosphatase reaction solution (60 mM HEPES, pH 7.5 0.005% Brij-35, 75 mM NaCl, 75 mM KCl, 1 mM EDTA, 5 mM DTT). The reaction solution was shaked (350 rpm) at room temperature for 30 minutes. The reaction substrate DiFMUP with a final concentration of 30 μM was added, and the reaction solution was reacted at room temperature for 30 minutes. The phosphatase reaction was stopped by adding 5 μL of stop solution (60 mM HEPES, pH 7.5, 0.2% SDS). Ex358 nm/Em455 fluorescence value was read on the fluorescence plate reader MD SpectraMax.
The IC50 value of the compound was calculated using the four-parameter logit method. In the following formula, x represents the logarithmic form of the compound concentration, and F(x) represents the effect value (the inhibition rate of cell proliferation under the given concentration condition): F(x)=((A−D)/(1+((x/C)^B)))+D. A, B, C and D are four parameters. Different concentrations correspond to different inhibition rates, based on which an inverse curve was plotted, and the IC50 of the inhibitor was calculated from the curve. The IC50 of the compound was calculated with Primer premier 6.0.

Q: With `N[C@@H]1c2cccnc2CC12CCN(c1ncc(Sc3ccnc(N4CCOCC4)c3Cl)c3nccn13)CC2` [Example 40, (S)-1′-(8-((3-Chloro-2-morpholinopyridin-4-yl)thio)imidazo[1,2-c]pyrimidin-5-yl)-5,7-dihydrospiro[cyclopenta[b]pyridine-6,4′-piperidin]-5-amine] as the compound, how does the IC50 ([1]; Homo sapiens, KYSE-520, 2 h) read?
A: 6.5 nM

Q: What about the IC50 ([2]; Homo sapiens) of the same compound?
A: 27.3 nM

Q: And the IC50 [3]?
A: 1.4 nM

Q: `Nc1nccc(Sc2cnc(N3CCC4(CC3)Cc3ccccc3[C@H]4N)n3ccnc23)c1Cl` [Example 32, (S)-1′-(8-((2-Amino-3-chloropyridin-4-yl)thio)imidazo[1,2-c]pyrimidin-5-yl)-1,3-dihydrospiro[indene-2,4′-piperidin]-1-amine] was tested. Which IC50 ([1]; Homo sapiens, KYSE-520, 2 h) did it give?
A: 2.7 nM

Q: And the IC50 ([2]; Homo sapiens)?
A: 12.9 nM

Q: And the IC50 [3]?
A: 1 nM

Q: `Nc1nccc(Sc2cnc(N3CCC4(CC3)Cc3ncccc3[C@H]4N)n3ccnc23)c1Cl` [Example 27, (S)-1′-(8-((2-Amino-3-chloropyridin-4-yl)thio)imidazo[1,2-c]pyrimidin-5-yl)-5,7-dihydrospiro[cyclopenta[b]pyridine-6,4′-piperidin]-5-amine] was tested. Which IC50 ([1]; Homo sapiens, KYSE-520, 2 h) did it give?
A: 8 nM

Q: And the IC50 ([2]; Homo sapiens)?
A: 31.5 nM

Q: And the IC50 [3]?
A: 1.7 nM

Q: For `CC1(O)CN(c2nccc(Sc3cnc(N4CCC5(CC4)Cc4ncccc4[C@H]5N)n4ccnc34)c2Cl)C1` [Example 39, (S)-1-(4-((5-(5-Amino-5,7-dihydrospiro[cyclopenta[b]pyridine-6,4′-piperidin]-1′-yl)imidazo[1,2-c]pyrimidin-8-yl)thio)-3-chloropyridin-2-yl)-3-methylazetidin-3-ol], which IC50 ([1]; 2 hours) is on record?
A: 10.3 nM

Q: What about the IC50 ([1]; Homo sapiens, KYSE-520, 2 h) of the same compound?
A: 7.9 nM

Q: What about the IC50 ([2]; Homo sapiens) of the same compound?
A: 24.1 nM

Q: And the IC50 [3]?
A: 1 nM

Q: For `C[C@@H]1OCC2(CCN(c3nc(C(F)(F)F)c(Sc4cccnc4C(F)(F)F)c4nccn34)CC2)[C@@H]1N` [Example 13, (3S,4S)-3-Methyl-8-(7-(trifluoromethyl)-8-((2-(trifluoromethyl)pyridin-3-yl)thio)imidazo[1,2-c]pyrimidin-5-yl)-2-oxa-8-azaspiro[4.5]decan-4-amine], which IC50 [3] is on record?
A: 818 nM

Q: With `Cc1nc(N2CCC3(CC2)CO[C@@H](C)[C@H]3N)c(CO)nc1-c1cccc(Cl)c1Cl` [RMC4550, reference compound] as the compound, how does the IC50 ([1]; 2 hours) read?
A: 34.6 nM

Q: And the IC50 [2]?
A: 201 nM

Q: For `Nc1nc(N2CCC3(CC2)Cc2ncccc2[C@H]3N)n2ccnc2c1Sc1cccnc1C(F)(F)F` [Example 28, (S)-1′-(7-Amino-8-((2-(trifluoromethyl)pyridin-3-yl)thio)imidazo[1,2-c]pyrimidin-5-yl)-5,7-dihydrospiro[cyclopenta[b]pyridine-6,4′-piperidin]-5-amine], which IC50 ([1]; Homo sapiens, KYSE-520, 2 h) is on record?
A: 8.6 nM

Q: And the IC50 ([2]; Homo sapiens)?
A: 21.6 nM

Q: What about the IC50 [3] of the same compound?
A: 2.6 nM

Q: Which IC50 ([1]; Homo sapiens, KYSE-520, 2 h) does the source give for `N[C@@H]1CCCC12CCN(c1ncc(Sc3ccnc(F)c3Cl)c3nccn13)CC2` [Example 15, (R)-8-(8-((3-Chloro-2-fluoropyridin-4-yl)thio)imidazo[1,2-c]pyrimidin-5-yl)-8-azaspiro[4.5]decan-1-amine] here?
A: 197 nM

Q: And the IC50 ([2]; Homo sapiens)?
A: 312 nM

Q: And the IC50 [3]?
A: 5.6 nM

Q: For `CC1(N)CCN(c2ncc(Sc3ccnc(F)c3Cl)c3nncn23)CC1` [Example 19, 1-(8-((3-Chloro-2-fluoropyridin-4-yl)thio)-[1,2,4]triazolo[4,3-c]pyrimidin-5-yl)-4-methylpiperidin-4-amine], which IC50 [3] is on record?
A: 555 nM

Q: For `Nc1nc(N2CCC3(CC2)Cc2ccccc2[C@H]3N)n2ccnc2c1Sc1cccnc1C(F)(F)F` [Example 30, (S)-1′-(7-Amino-8-((2-(trifluoromethyl)pyridin-3-yl)thio)imidazo[1,2-c]pyrimidin-5-yl)-1,3-dihydrospiro[indene-2,4′-piperidin]-1-amine], which IC50 ([1]; Homo sapiens, KYSE-520, 2 h) is on record?
A: 6.1 nM

Q: And the IC50 ([2]; Homo sapiens)?
A: 8.9 nM

Q: What about the IC50 [3] of the same compound?
A: 1.4 nM

Q: For `Cc1nc(N2CCC3(CC2)Cc2ncccc2[C@H]3N)n2ccnc2c1-c1cccc(Cl)c1Cl` [Example 33, (S)-1′-(8-(2,3-Dichlorophenyl)-7-methylimidazo[1,2-c]pyrimidin-5-yl)-5,7-dihydrospiro[cyclopenta[b]pyridine-6,4′-piperidin]-5-amine], which IC50 [3] is on record?
A: 1.2 nM

Q: For `Nc1nccc(Sc2c(N)nc(N3CCC4(CC3)Cc3ccccc3[C@H]4N)n3ccnc23)c1Cl` [Example 29, (S)-1′-(7-Amino-8-((2-amino-3-chloropyridin-4-yl)thio)imidazo[1,2-c]pyrimidin-5-yl)-1,3-dihydrospiro[indene-2,4′-piperidin]-1-amine], which IC50 ([2]; Homo sapiens) is on record?
A: 14 nM

Q: What about the IC50 [3] of the same compound?
A: 1.3 nM

Q: How did the IC50 ([1]; Homo sapiens, KYSE-520, 2 h) turn out when `Cc1nccc(Sc2c(N)nc(N3CCC4(CC3)CO[C@@H](C)[C@H]4N)n3ccnc23)c1Cl` [Example 25, (3S,4S)-8-(7-Amino-8-((3-chloro-2-methylpyridin-4-yl)thio)imidazo[1,2-c]pyrimidin-5-yl)-3-methyl-2-oxa-8-azaspiro[4.5]decan-4-amine] was run?
A: 29.1 nM

Q: What about the IC50 [3] of the same compound?
A: 5.2 nM

Q: For `Cc1nc(N2CCC3(CC2)CO[C@@H](C)[C@H]3N)n2ccnc2c1-c1cccc(Cl)c1Cl` (single isomer, unassigned) [The atropisomer with a RT of 2.716 minutes in Examples 3 and 4], which IC50 [3] is on record?
A: 61.7 nM

Q: What does the source list for `Cc1nc(N2CCC3(CC2)CO[C@@H](C)[C@H]3N)n2ccnc2c1-c1cccc(Cl)c1Br` [Example 12, (3S,4S)-8-(8-(2-Bromo-3-chlorophenyl)-7-methylimidazo[1,2-c]pyrimidin-5-yl)-3-methyl-2-oxa-8-azaspiro[4.5]decan-4-amine]?
A: IC50 ([1]; Homo sapiens, KYSE-520, 2 h): 59.2 nM; IC50 ([2]; Homo sapiens): 346 nM

Q: With `CC1(N)CCN(c2ncc(Sc3ccnc(F)c3Cl)c3nccn23)CC1` [Example 14, 1-(8-((3-Chloro-2-fluoropyridin-4-yl)thio)imidazo[1,2-c]pyrimidin-5-yl)-4-methylpiperidin-4-amine] as the compound, how does the IC50 [3] read?
A: 232 nM

Q: Which IC50 [3] does the source give for `COc1nccc(-c2c(C)nc(N3CCC4(CCC[C@H]4N)CC3)n3ccnc23)c1Cl` [Example 6, (R)-8-(8-(3-Chloro-2-methoxypyridin-4-yl)-7-methylimidazo[1,2-c]pyrimidin-5-yl)-8-azaspiro[4.5]decan-1-amine] here?
A: 26.9 nM

Q: For `Cc1nc(N2CCC3(CC2)CO[C@@H](C)[C@H]3N)n2ccnc2c1-c1c(F)ccc(Cl)c1Cl` [Example 11, (3S,4S)-8-(8-(2,3-Dichloro-6-fluorophenyl)-7-methylimidazo[1,2-c]pyrimidin-5-yl)-3-methyl-2-oxa-8-azaspiro[4.5]decan-4-amine], which IC50 [3] is on record?
A: 41.1 nM

Q: How did the IC50 [3] turn out when `C[C@@H]1OCC2(CCN(c3ncc(Sc4ccncc4C(F)(F)F)c4nccn34)CC2)[C@@H]1N` [Example 18, (3S,4S)-3-Methyl-8-(8-((3-(trifluoromethyl)pyridin-4-yl)thio)imidazo[1,2-c]pyrimidin-5-yl)-2-oxa-8-azaspiro[4.5]decan-4-amine] was run?
A: 8.6 nM

Q: `CNc1ncccc1Sc1cnc(N2CCC3(CC2)Cc2ncccc2[C@H]3N)n2ccnc12` [Example 38, (S)-1′-(8-((2-(Methylamino)pyridin-3-yl)thio)imidazo[1,2-c]pyrimidin-5-yl)-5,7-dihydrospiro[cyclopenta[b]pyridine-6,4′-piperidin]-5-amine] was tested. Which IC50 [3] did it give?
A: 10.9 nM

Q: With `COc1nccc(Sc2cnc(N3CCC4(CC3)Cc3ncccc3[C@H]4N)n3ccnc23)c1Cl` [Example 35, (S)-1′-(8-((3-Chloro-2-methoxypyridin-4-yl)thio)imidazo[1,2-c]pyrimidin-5-yl)-5,7-dihydrospiro[cyclopenta[b]pyridine-6,4′-piperidin]-5-amine] as the compound, how does the IC50 [3] read?
A: 1.5 nM

Q: Which IC50 [3] does the source give for `Cc1nc(N2CCC3(CCC[C@H]3N)CC2)n2ccnc2c1-c1ccnc(Cl)c1Cl` [Example 5, (R)-8-(8-(2,3-Dichloropyridin-4-yl)-7-methylimidazo[1,2-c]pyrimidin-5-yl)-8-azaspiro[4.5]decan-1-amine] here?
A: 2.9 nM

Q: For `Cc1nc(N2CCC3(CCC[C@H]3N)CC2)n2ccnc2c1-c1ccc(OC(F)F)cc1Cl` [Example 7, (R)-8-(8-(2-Chloro-4-(difluoromethoxy)phenyl)-7-methylimidazo[1,2-c]pyrimidin-5-yl)-8-azaspiro[4.5]decan-1-amine], which IC50 [3] is on record?
A: 42.2 nM

Q: For `Cc1nc(N2CCC3(CC2)CO[C@@H](C)[C@H]3N)n2ccnc2c1-c1c(F)cccc1Cl` [Example 10, (3S,4S)-8-(8-(2-Chloro-6-fluorophenyl)-7-methylimidazo[1,2-c]pyrimidin-5-yl)-3-methyl-2-oxa-8-azaspiro[4.5]decan-4-amine], which IC50 [3] is on record?
A: 111 nM
